From US6869788B2, “DNA encoding novel D-aminoacylase and process for producing D-amino acid by using the same” (Mitsui Chemicals, Inc., priority 2001, dated 2005)

What was measured:
[1] = test system: D-aminoacylase derived from Methylobacterium mesophilicum MT 10894 (FERM BP-7856); assay: Substrate specificity of E. coli transformed by the DNA containing the D-aminoacylase gene to N-acetyl-DL-amino acids; format: biochemical; conditions: substrate 5 g/L, 40° C., 16 hours; activity with N-acetyl-DL-tryptophan as substrate = 100
Description: Reactivity and an optical purity were evaluated by analyzing a D-amino acid produced in a reaction and a remaining N-acylamino acid by high performance liquid chromatography (column: CROWNPAK CR(−); Daicel Chemical Industries, Ltd.); column temperature: 40° C.; mobile phase: HClO4 aq. pH 1.5 and 0 to 15% methanol (v/v); flow rate 0.8 mL/min, detection: 210 nm).
E. coli transformed by the plasmid shown in FIG. 1 in Example 7 was subject to shaking culture in an LB medium containing ampicillin (50 μg/mL) at 37° C. overnight. After culturing, the bacterial cells were harvested by centrifugation and washed with a 0.1 M phosphate buffer (pH 7.8). The bacterial cells were suspended in a 0.1 M phosphate buffer (pH 7.8).
Substrate specificity of E. coli transformed by the plasmid shown in FIG. 1 in Example 7 was compared for N-acetyl-DL-amino acids. In this example, the reaction was conducted at a substrate N-acetyl-DL-amino acid concentration of 5 g/L at 40° C. for 16 hours. Relative activities to a variety of N-acetyl-DL-amino acids together with optical purities and reaction yields were determined, assuming that D-aminoacylase activity was 100 when N-acetyl-DL-tryptophan was a substrate.

[2] = Physical properties of the D-aminoacylase (optimal pH, optimal temperature, thermal stability); format: physicochemical

Molecule: CC(=O)NC(Cc1ccc(O)cc1)C(=O)O (racemic) [N-acetyl-DL-tyrosine]
- Relative activity (%) [1]: 67%

Molecule: CC(=O)NC(Cc1c[nH]c2ccccc12)C(=O)O (racemic) [N-acetyl-DL-tryptophan]
- Relative activity (%) [1]: 100%

Molecule: CC(=O)NC(Cc1ccccc1)C(=O)O (racemic) [N-acetyl-DL-phenylalanine]
- Relative activity (%) [1]: 104%

Molecule: CC(=O)NC(Cc1c[nH]c2ccc(O)cc12)C(=O)O (racemic) [N-acetyl-DL-5-hydroxytryptophan]
- Relative activity (%) [1]: 80%

Molecule: CC(=O)NC(Cc1ccc(F)cc1)C(=O)O (racemic) [N-acetyl-DL-4-fluorophenylalanine]
- Relative activity (%) [1]: 99%

Molecule: CC(=O)NC(COCc1ccccc1)C(=O)O (racemic) [N-acetyl-DL-o-benzylserine]
- Relative activity (%) [1]: 30%

Molecule: CC(=O)NC(CCc1ccccc1)C(=O)O (racemic) [N-acetyl-DL-homophenylalanine]
- Relative activity (%) [1]: 45%

Molecule: CC(=O)NC(Cc1ccc(Cl)cc1)C(=O)O (racemic) [N-acetyl-DL-4-chlorophenylalanine]
- Relative activity (%) [1]: 89%

B1: D-aminoacylase: the D-aminoacylase according to this invention, whose physical properties are listed; source strain not stated at that place (protein, listed as Methylobacterium mesophilicum)
chain: MTDSTRKHDLIIRGGTVIDGRRTPRFRADVAVRDGRLSAIGDLADHRAAQEIDATGRIVAPGFIDSHTHDDQAVLSQPQIPFKVSQGVTTVIAGNCGISAAPLRRDMDLPMPLNLIDVPAEERFTRFADYLDALRARPSSVNVAAMVGHSTLRAVTMPALDREANSEEIARMRALVQEAMDAGAIGVSTGTFYPPAVKATTEEIIEVCRPLTAAGGLYVTHMRDESDQVMTSLEETFRIGRALDVPVVVSHHKVQNTPNFGKSQVTLPFIREAMQRQRVCLDCYPYTAGSTMIRADRGMLEGRVLIAESLPHPECAGRDLDDIARDWGVDRVEAARRLQPGSAIYFLMDEGDVQRILAFDDTMIGSDGIPVGSKPHPRLWGTFPRVLGHYSRDVGLFPLETAVWKMTGLTARNFGLHGRGTLEAGQAADIVVFDAGTVRDAADYAEPTRPAEGIDAVIVNGAITWQGGQHTGARQGQVIRRQAAPSH
- Optimal temperature [2]: 60° C.;
- Thermal stability: remaining activity ([2]; after heating at 40° C. for 20 hours): 80% remaining activity
